Data from US20090270350A1, “Pyridinone Pyrazole Urea and Pyrimidinone Pyrazole Urea Derivatives” (PFIZER INC., priority 2006, published 2009).

target: p38α (Homo sapiens, UniProt Q16539); test: p38α/MK2 cascade assay; format: biochemical; details: Table 1; inhibitors preincubated with p38α for 40 minutes; phosphorylation of Hsp27 peptide by MK-2, Caliper LabChip 3000; read-out: p38a/MK2 Cascade 40 min Pre-Incuabtion (% Inhibition): IC50
Method: The ability of compounds to inhibit activated p38α was determined in a p38α/MK-2 cascade assay format. The kinase activity of p38α is determined by its ability to phosphorylate/activate nonactive MK2 (54-400). Activation of MK-2 by p38α is measured by following the phosphorylation of a MK-2 specific peptide, Hsp27 peptide (FITC-KKKALSRQLSVAA). The phosphorylation of the Hsp27 peptide was quantified using the Caliper LabChip 3000. The kinase reactions were carried out in 20 mM HEPES pH 7.5, 10 mM MgCl2, 0.0005% Tween-20, 0.01% BSA, 1 mM DTT, and 2% DMSO. The inhibitors were varied between 1000-0.05 nM, while the Hsp27 peptide substrate, MgATP, and nonactive MK-2 (54-400) were held constant at 0.5 µM, 5 µM, and 1 nM, respectively. Inhibitors were preincubated with p38α for 40 minutes prior to initiating the reaction with peptide, MgATP, and MK-2. The kinase reactions were quenched after 60 minutes by the addition of stop buffer (180 mM HEPES, 30 mM EDTA, and 0.2% Coating Reagent-3).
The above protocol assay was used to determine the IC50 values for some of the compounds in the above Examples.
IC50 values were determined for the compounds listed in Table 2, using the same p38α/MK2 cascade assay used to determine the IC50 values for the compounds in Table 1. The compounds of Table 2 were prepared using methods similar to those listed in the Examples for compounds of Table 1.

Sequence of p38α (Q16539 whole entry): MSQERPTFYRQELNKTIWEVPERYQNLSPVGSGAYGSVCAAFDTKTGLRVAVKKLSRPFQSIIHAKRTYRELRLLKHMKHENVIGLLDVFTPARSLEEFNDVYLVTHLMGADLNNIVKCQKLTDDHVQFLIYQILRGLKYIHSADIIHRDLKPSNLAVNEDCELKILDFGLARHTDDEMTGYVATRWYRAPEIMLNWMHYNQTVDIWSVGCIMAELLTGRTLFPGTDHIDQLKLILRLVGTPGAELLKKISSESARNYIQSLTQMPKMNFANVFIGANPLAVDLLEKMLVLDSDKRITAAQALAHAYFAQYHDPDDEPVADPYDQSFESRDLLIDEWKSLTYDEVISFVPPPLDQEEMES

Point of comparison: COc1ccc(Cn2c(C)cc(OCc3ccccc3CNC(=O)Nc3cc(C4CC4)nn3-c3ccccc3)c(Br)c2=O)cc1 [Example 102, 1-[2-({[3-bromo-1-(4-methoxybenzyl)-6-methyl-2-oxo-1,2-dihydropyridin-4-yl]oxy}methyl)benzyl]-3-(3-cyclopropyl-1-phenyl-1H-pyrazol-5-yl)urea], IC50 182 nM. Against it:
- COc1ccc(Cn2c(C)cc(OCc3ccccc3CNC(=O)Nc3cc(C(C)(C)C)nn3-c3ccc(O)cc3)cc2=O)cc1 [Example 54, 1-[3-tert-butyl-1-(4-hydroxyphenyl)-1H-pyrazol-5-yl]-3-[2-({[1-(4-methoxybenzyl)-6-methyl-2-oxo-1,2-dihydropyridin-4-yl]oxy}methyl)benzyl]urea] — 1.6-fold lower, 117 nM
- COc1ccc(Cn2c(C)cc(OCc3ccccc3CNC(=O)Nc3cc(C(C)(C)C)nn3-c3cccc(O)c3)cc2=O)cc1 [Example 55, 1-[3-tert-butyl-1-(3-hydroxyphenyl)-1H-pyrazol-5-yl]-3-[2-({[1-(4-methoxybenzyl)-6-methyl-2-oxo-1,2-dihydropyridin-4-yl]oxy}methyl)benzyl]urea] — 7.5-fold lower, 24.3 nM
- COc1ccc(Cn2c(C)cc(OCc3ccccc3CNC(=O)Nc3cc(C(C)(C)C)nn3-c3ccc(O)c(Cl)c3)cc2=O)cc1 [Example 56, 1-[3-tert-butyl-1-(3-chloro-4-hydroxyphenyl)-1H-pyrazol-5-yl]-3-[2-({[1-(4-methoxybenzyl)-6-methyl-2-oxo-1,2-dihydropyridin-4-yl]oxy}methyl)benzyl]urea] — 4.6-fold lower, 39.2 nM
- COc1ccc(Cn2c(C)cc(OCc3ccccc3CNC(=O)Nc3cc(C(C)(C)C)nn3-c3cccc(OCCO)c3)c(Cl)c2=O)cc1 [Example 57, 1-{3-tert-butyl-1-[3-(2-hydroxyethoxy)phenyl]-1H-pyrazol-5-yl}-3-[2-({[3-chloro-1-(4-methoxybenzyl)-6-methyl-2-oxo-1,2-dihydropyridin-4-yl]oxy}methyl)benzyl]urea] — 20-fold lower, 9.3 nM
- COc1ccc(Cn2c(C)cc(OCc3ccccc3CNC(=O)Nc3cc(C(C)(C)C)nn3-c3ccc(O)c(Cl)c3)c(Cl)c2=O)cc1 [Example 58, 1-[3-tert-butyl-1-(3-chloro-4-hydroxyphenyl)-1H-pyrazol-5-yl]-3-[2-({[3-chloro-1-(4-methoxybenzyl)-6-methyl-2-oxo-1,2-dihydropyridin-4-yl]oxy}methyl)benzyl]urea] — 40-fold lower, 4.6 nM
- COc1ccc(Cn2c(C)cc(OCc3ccc(F)cc3CNC(=O)Nc3cc(C(C)(C)C)nn3-c3cccc(OCCO)c3)c(Cl)c2=O)cc1 [Example 60, 1-{3-tert-butyl-1-[3-(2-hydroxyethoxy)phenyl]-1H-pyrazol-5-yl}-3-[2-({[3-chloro-1-(4-methoxybenzyl)-6-methyl-2-oxo-1,2-dihydropyridin-4-yl]oxy}methyl)-5-fluorobenzyl]urea] — 49-fold lower, 3.7 nM
- COc1ccc(Cn2c(C)cc(OCc3ccc(F)cc3CNC(=O)Nc3cc(C(C)(C)C)nn3-c3ccc(O)c(Cl)c3)c(Cl)c2=O)cc1 [Example 62, 1-[3-tert-butyl-1-(3-chloro-4-hydroxyphenyl)-1H-pyrazol-5-yl]-3-[2-({[3-chloro-1-(4-methoxybenzyl)-6-methyl-2-oxo-1,2-dihydropyridin-4-yl]oxy}methyl)-5-fluorobenzyl]urea] — 40-fold lower, 4.5 nM
- COc1ccc(Cn2c(C)cc(OCc3ccccc3CNC(=O)Nc3cc(C(C)(C)C)nn3-c3ccc(O)cc3)c(Cl)c2=O)cc1Cl [Example 64, 1-[3-tert-butyl-1-(4-hydroxyphenyl)-1H-pyrazol-5-yl]-3-[2-({[3-chloro-1-(3-chloro-4-methoxybenzyl)-6-methyl-2-oxo-1,2-dihydropyridin-4-yl]oxy}methyl)benzyl]urea] — 24-fold lower, 7.5 nM
- COc1ccc(Cn2c(C)cc(OCc3ccccc3CNC(=O)Nc3cc(C(C)(C)C)nn3-c3cccc(O)c3)c(Cl)c2=O)cc1Cl [Example 65, 1-[3-tert-butyl-1-(3-hydroxyphenyl)-1H-pyrazol-5-yl]-3-[2-({[3-chloro-1-(3-chloro-4-methoxybenzyl)-6-methyl-2-oxo-1,2-dihydropyridin-4-yl]oxy}methyl)benzyl]urea] — 26-fold lower, 6.9 nM
- COc1ccc(Cn2c(C)cc(OCc3ccccc3CNC(=O)Nc3cc(C(C)(C)C)nn3-c3ccc(O)c(Cl)c3)c(Cl)c2=O)cc1Cl [Example 66, 1-[3-tert-butyl-1-(3-chloro-4-hydroxyphenyl)-1H-pyrazol-5-yl]-3-[2-({[3-chloro-1-(3-chloro-4-methoxybenzyl)-6-methyl-2-oxo-1,2-dihydropyridin-4-yl]oxy}methyl)benzyl]urea] — 19-fold lower, 9.7 nM
- COc1ccc(Cn2c(C)cc(OCc3ccccc3CNC(=O)Nc3cc(C(C)(C)C)nn3-c3ccc(Cl)c(O)c3)c(Cl)c2=O)cc1Cl [Example 67, 1-[3-tert-butyl-1-(4-chloro-3-hydroxyphenyl)-1H-pyrazol-5-yl]-3-[2-({[3-chloro-1-(3-chloro-4-methoxybenzyl)-6-methyl-2-oxo-1,2-dihydropyridin-4-yl]oxy}methyl)benzyl]urea] — 23-fold lower, 7.9 nM
- COc1cc(Cn2c(C)cc(OCc3ccccc3CNC(=O)Nc3cc(C(C)(C)C)nn3-c3cccc(O)c3)c(Cl)c2=O)ccc1Cl [Example 81, 1-[3-tert-butyl-1-(3-hydroxyphenyl)-1H-pyrazol-5-yl]-3-[2-({[3-chloro-1-(4-chloro-3-methoxybenzyl)-6-methyl-2-oxo-1,2-dihydropyridin-4-yl]oxy}methyl)benzyl]urea] — 9.1-fold lower, 20.1 nM
- COc1ccc(Cn2c(C)cc(OCc3ccccc3CNC(=O)Nc3cc(C(C)(C)C)nn3-c3cccc(F)c3)c(Br)c2=O)cc1 [Example 97, 1-[2-({[3-bromo-1-(4-methoxybenzyl)-6-methyl-2-oxo-1,2-dihydropyridin-4-yl]oxy}methyl)benzyl]-3-[3-tert-butyl-1-(3-fluorophenyl)-1H-pyrazol-5-yl]urea] — 47-fold lower, 3.9 nM
- COc1ccc(Cn2c(C)cc(OCc3ccccc3CNC(=O)Nc3cc(C(C)(C)C)nn3-c3cccc(Cl)c3)c(Br)c2=O)cc1 [Example 98] — 43-fold lower, 4.23 nM
- COc1ccc(Cn2c(C)cc(OCc3ccccc3CNC(=O)Nc3cc(C(C)(C)C)nn3-c3cccc(OC)c3)c(Br)c2=O)cc1 [Example 99, 1-[2-({[3-bromo-1-(4-methoxybenzyl)-6-methyl-2-oxo-1,2-dihydropyridin-4-yl]oxy}methyl)benzyl]-3-[3-tert-butyl-1-(3-methoxyphenyl)-1H-pyrazol-5-yl]urea] — 52-fold lower, 3.49 nM
- Cc1ccc(-n2nc(C(C)(C)C)cc2NC(=O)NCc2ccccc2COc2cc(C)n(Cc3ccc(O)cc3)c(=O)c2Br)cc1 [Example 100, 1-[2-({[3-bromo-1-(4-hydroxybenzyl)-6-methyl-2-oxo-1,2-dihydropyridin-4-yl]oxy}methyl)benzyl]-3-[3-tert-butyl-1-(4-methylphenyl)-1H-pyrazol-5-yl]urea] — 40-fold lower, 4.59 nM
- COc1ccc(Cn2c(C)cc(OCc3ccccc3CNC(=O)Nc3cc(C(C)(C)C)nn3-c3ccc(C)cc3)c(Br)c2=O)cc1 [Example 101, 1-[2-({[3-bromo-1-(4-methoxybenzyl)-6-methyl-2-oxo-1,2-dihydropyridin-4-yl]oxy}methyl)benzyl]-3-[3-tert-butyl-1-(4-methylphenyl)-1H-pyrazol-5-yl]urea] — 22-fold lower, 8.19 nM
- Cc1cc(OCc2ccccc2CNC(=O)Nc2cc(C(C)(C)C)nn2-c2cccc(F)c2)c(Br)c(=O)n1Cc1ccccc1 [Example 103, 1-(2-{[(1-benzyl-3-bromo-6-methyl-2-oxo-1,2-dihydropyridin-4-yl)oxy]methyl}benzyl)-3-[3-tert-butyl-1-(3-fluorophenyl)-1H-pyrazol-5-yl]urea] — 69-fold lower, 2.62 nM
- Cc1cc(OCc2ccccc2CNC(=O)Nc2cc(C(C)(C)C)nn2-c2ccccc2)c(Br)c(=O)n1Cc1ccccc1 [Example 104, 1-(2-{[(1-benzyl-3-bromo-6-methyl-2-oxo-1,2-dihydropyridin-4-yl)oxy]methyl}benzyl)-3-(3-tert-butyl-1-phenyl-1H-pyrazol-5-yl)urea] — 40-fold lower, 4.52 nM
- Cc1cc(OCc2ccccc2CNC(=O)Nc2cc(C(C)(C)C)nn2-c2ccc(F)cc2F)c(Br)c(=O)n1Cc1ccccc1 [Example 105, 1-(2-{[(1-benzyl-3-bromo-6-methyl-2-oxo-1,2-dihydropyridin-4-yl)oxy]methyl}benzyl)-3-[3-tert-butyl-1-(2,4-difluorophenyl)-1H-pyrazol-5-yl]urea] — 22-fold lower, 8.19 nM
- Cc1ccc(-n2nc(C(C)(C)C)cc2NC(=O)NCc2ccccc2COc2cc(C)n(Cc3ccccc3)c(=O)c2Br)cc1 [Example 106, 1-(2-{[(1-benzyl-3-bromo-6-methyl-2-oxo-1,2-dihydropyridin-4-yl)oxy]methyl}benzyl)-3-[3-tert-butyl-1-(4-methylphenyl)-1H-pyrazol-5-yl]urea] — 40-fold lower, 4.59 nM
- Cc1cc(OCc2ccccc2CNC(=O)Nc2cc(C(C)(C)C)nn2-c2cccc(Cl)c2)c(Br)c(=O)n1Cc1ccccc1 [Example 108, 1-(2-{[(1-benzyl-3-bromo-6-methyl-2-oxo-1,2-dihydropyridin-4-yl)oxy]methyl}benzyl)-3-[3-tert-butyl-1-(3-chlorophenyl)-1H-pyrazol-5-yl]urea] — 49-fold lower, 3.71 nM
